# Test results published in US8633177B2, “Nitroxyl (HNO) releasing compounds and uses thereof in treating diseases” (The United States of America, as represented by the …, priority 2010, dated 2014).
# Read-outs that look alike come from different tables or passages of the source.
# Assays:
# [1] = tested on: COX-2 mRNA; assay: COX mRNA levels; type: cell-based; conditions: Control 1.0
# From the text: PGE2 levels are a direct measure of COX-2 activity. […] Increased COX-2 expression in the presence of aspirin has been reported previously (Davies et al., Alimentary Pharm. & Ther. 11(6):1101-08 (1997))). Both DEA/NO and DEA/NO-aspirin seem to augment the effect of aspirin while IPA/NO and IPA/NO-aspirin nullifies the effect and brings it back to the control level (Table 3).
# [2] = tested on: caspase-3; assay: Caspase-3 fluorescence assay, MDA-MB-468; type: cell-based, human; conditions: 12 h
# Experimental: The caspase-3 activity in the presence of IPA/NO-ASA and DEA/NO-ASA was measured using caspase-3 fluorescence assay kit (Cat No. 10009135, Cayman Chemical). Cells were plated at a concentration of 50,000 cells per well in a 96 well plate and grown overnight. Then the cells were treated with different concentrations of the compounds and controls for 12 h. After 12 h, the plate was centrifuged at 800 g and the media was removed by aspiration. 100 μL of lysis buffer was added to each well and the plate was incubated for […] at room temperature. 100 μL of a caspase-3 substrate solution was added to each well and incubated for 30 min after which the fluorescence was read at excitation of 485 nm and emission of 535 nm.
# [3] = NO quantified by chemiluminescence during hydrolysis; type: physicochemical; conditions: 1 mM ferricyanide solution
# Experimental: In addition to HNO measurements as described above by reductive nitrosylation of metmyoglobin, NO was quantified by chemiluminescence assay, N2O by gas chromatography, and nitrite ion by the Griess assay.
# Detection of HNO was also carried out using the chemiluminescence method in, 1 mM ferricyanide solution.
# [4] = tested on: A549 cells; assay: Intracellular NO/HNO by DAF-FM diacetate in A549 cells; type: cell-based
# Experimental: The intracellular NO and HNO were determined by using 4-amino-5-methylamino-2′,7′-difluorofluorescein diacetate (DAF-FM diacetate) as the reporter molecule. Cells were plated at a concentration of 30,000 cells per well in a 96 cell plate and grown overnight. Then DAF-FM diacetate in DMSO was added to each well with a final concentration of 10 μM and incubated for 30 min. Each well was washed three times with PBS pH 7.4. The desired compound was then added and the fluorescence was measured at an excitation of 485 nm and emission of 535 nm using PerkinElmer HTS 7000 plate reader.
# Both NO and HNO increased the fluorescence of DAF. The NO/HNO release profiles for compounds 4 and 8 within A549 cells were determined by loading the cells with DAF-FM diacetate, a cell permeable dye, which is cleaved by esterase to form DAF-FM and reacts with NO to form benzotriazole derivative with an excitation of 495 nm and emission of 515 nm (Kojima et al., Chemical & Pharm. Bulletin, 462 373-75 (1998)). […] Both 4 and 8 show temporal release in the presence and absence of cells. […] Moreover, when DAF-FM diacetate is present both inside and outside the cells, the fluorescence intensity is ten times higher than that without cells.
# [5] = tested on: HUVEC cells; assay: Tube formation (angiogenesis) on Matrigel; type: cell-based; conditions: 12 h, even at 1 μM, compared to control
# Experimental: To determine the effect of NO and HNO releasing aspirin on angiogenesis, HUVEC cells were treated with the compounds and tube formation was studied after 12 h. Matrigel (50 μL) was added to each well in a 96 well plate and incubated for 2 h at 37° C. Cell suspension treated with different concentrations of IPA/NO-aspirin, DEA/NO-aspirin and controls was added to each well at a concentration of 20,000 cells per well. After 12 hours, tube formation was measured using a microscope.
# [6] = molecular target: glyceraldehyde-3-phosphate dehydrogenase (GAPDH) (Homo sapiens, UniProt P04406); assay: GAPDH activity, MDA-MB-468; type: cell-based; parameters: endogenous in cells; host or cells: MDA-MB-468; conditions: MDA-MB-468, 100 μM
# Experimental: Cells were plated at a concentration of 30,000 cells per well and grown overnight. Cells were treated with 100 μM IPA/NO-aspirin and DEA/NO-aspirin for 1, 3, and 6 h after which 200 μL of KDalert lysis buffer was added to each well. The plate was incubated at 4° C. for 20 min to lyse the cells. 10 μL of cell lysate was transferred to a clean 96 well plate and 90 μL of KDalert mastermix was added to each well and the fluorescence was measured at excitation of 540 nm and emission of 570 nm.
# [7] = tested on: stomach ulcers; assay: Ulcerogenicity (ulcer index) after oral administration; type: in vivo, rats; conditions: for Ulcer Index: 6 h after oral administration, equivalent to 250 mg/kg aspirin; for UI (ulcer index): as given in the text
# Experimental: Ulcerogenicity was evaluated 6 h after oral administration of 250 mg/kg of aspirin (250 mg/kg) and an equivalent amount of the corresponding test compound. The compounds were suspended in 1.7 mL of a 1% methylcellulose solution and administered. The control rats received oral administration of a vehicle (1.7 mL of 1.0% methylcellulose solution). The rats were euthanized in a CO2 chamber and their stomachs and placed on ice and then the ulcers were studied using magnifying glass.
# [8] = tested on: HUVECs; assay: MTT assay, normal endothelial cell line HUVECs; type: cell-based
# [9] = tested on: MB-231 breast cancer cell lines; assay: DAF assay of cell membrane penetration, MB-231; conditions: MB-231 cell line
# Experimental: Intracellular NO/HNO release from the derivatized NSAIDs was determined using 4-amino-5-methylamino-2′,7′-difluorofluoroescein diacetate (DAF-FM diacetate) as in Example 9.
# [10] = tested on: Prostaglandin E2; assay: PGE2 production, prostaglandin E2 EIA kit; type: cell-based; conditions: 24 h
# Experimental: Cells were plated at a concentration of 50,000 cells per well and grown overnight. Then 25, 50, and 100 μM of DMSO, IPA/NO-aspirin, and DEA/NO-aspirin were added to the corresponding well for 24 h and incubated at 37° C. The supernant was then analyzed for PGE2 activity using prostaglandin E2 EIA kit (Cayman Cat No. 514010).
# [11] = tested on: MB-231 cells stably transfected with green fluorescent protein (GFP); assay: Tumor size in nude mice implanted with MB-231-GFP cells; type: in vivo; conditions: daily injection for 5 weeks, equi-molar dosages, compared to control
# Experimental: 40 Nude mice were implanted with 7.5E5 MB-231 cells stably transfected with green fluorescent protein (GFP) per animal and allowed to grow for 14 days. The animals were randomly divided into four groups: untreated as a control, aspirin treated, IPA/NO-aspirin and DEA/NO-aspirin. Treated groups were injected daily with equi-molar dosages of the corresponding compounds (DEA/NO-aspirin=16.25 mg/Kg, IPA/NO-aspirin=15.75 mg/Kg, Aspirin=9 mg/Kg) for the next 5 weeks daily and the tumor size was measured using in vivo fluorescent imaging for quantification of the GFP tag (FIG. 9A (mammary tumor) and FIG. 9B (brain tumor)). The animals were then sacrificed to assess their brain for metastasis.
# Chain of glyceraldehyde-3-phosphate dehydrogenase (GAPDH) (P04406 whole entry): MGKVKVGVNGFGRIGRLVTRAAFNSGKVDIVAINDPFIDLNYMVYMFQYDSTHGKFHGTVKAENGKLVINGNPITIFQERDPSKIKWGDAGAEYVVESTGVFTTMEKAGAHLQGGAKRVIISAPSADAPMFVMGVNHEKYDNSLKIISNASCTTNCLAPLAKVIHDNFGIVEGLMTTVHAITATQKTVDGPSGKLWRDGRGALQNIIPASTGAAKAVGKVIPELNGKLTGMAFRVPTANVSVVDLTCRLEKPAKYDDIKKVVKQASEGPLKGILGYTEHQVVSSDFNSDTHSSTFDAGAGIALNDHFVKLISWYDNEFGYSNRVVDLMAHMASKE
SMILES,COX-2 mRNA level relative to control [1],"Caspase-3 Activity ([2]; MDA-MB-468, 25 μM) [U/mL]","Caspase-3 Activity ([2]; MDA-MB-468, 50 μM) [U/mL]","Caspase-3 Activity ([2]; MDA-MB-468, 100 μM) [U/mL]",NO/HNO release by chemiluminescence [3],cell penetration [4],cell penetration ([4]; listed as 8),angiogenesis (tube formation) [5],GAPDH Activity ([6]; 1 h) [U/mL],GAPDH Activity ([6]; 3 h) [U/mL],GAPDH Activity ([6]; 6 h) [U/mL],Ulcer Index [7] [mg/kg],UI (ulcer index) [7],cell death in MTT assay [8],cell membrane penetration [9],Prostaglandin E2 ([10]; 25 μM) [pg/mL],Prostaglandin E2 ([10]; 50 μM) [pg/mL],Prostaglandin E2 ([10]; 100 μM) [pg/mL],tumor size [11],cell penetration ([4]; listed as 4)
"CCN(CC)[N+]([O-])=NOCOC(=O)c1ccccc1OC(C)=O [DEA/NO-aspirin, O^2-(Acetylsalicyloyloxymethyl)-1-(N,N-Diethylamino)-diazen-1-ium-1,2-diolate]",6.5,0.40,0.38,0.81,shows NO release,permeated the cell membrane with minimal decomposition,penetrate the cells,reduced angiogenesis,0.060,0.065,0.050,0,0,No significant cell death,penetrated cell membranes,21,38,36,effective in reducing the tumor size,–
"CC(=O)Oc1ccccc1C(=O)OCON=[N+]([O-])NC(C)C [IPA/NO-aspirin, O^2-(Acetylsalicyloyloxymethyl)-1-(N-isopropylamino)-diazen-1-ium-1,2-diolate]",0.8,0.60,0.60,0.50,showed both NO and HNO release,permeated the cell membrane with minimal decomposition,–,reduced angiogenesis,<0.010,<0.010,<0.010,3.3 ± 3,3.0+3.0,No significant cell death,penetrated cell membranes,17,14,13,effective in reducing the tumor size,penetrate the cells
